Measured values from PMC11187126, “Structure and dynamics of the pyroglutamylated RF-amide peptide QRFP receptor GPR103” (Nature Communications, 2024).
Read-outs that look alike come from different tables or passages of the source. No end group written: not given here.

Target: T1, GPR103 V129^3.36A (Homo sapiens, UniProt Q96P65, V129A)
T1 construct: we used human full-length QRFPR-encoding plasmids; expressed in transfected cells; host or cells: HEK293 cells, pCAGGS vector
T1 sequence (Q96P65 1-431 V129A): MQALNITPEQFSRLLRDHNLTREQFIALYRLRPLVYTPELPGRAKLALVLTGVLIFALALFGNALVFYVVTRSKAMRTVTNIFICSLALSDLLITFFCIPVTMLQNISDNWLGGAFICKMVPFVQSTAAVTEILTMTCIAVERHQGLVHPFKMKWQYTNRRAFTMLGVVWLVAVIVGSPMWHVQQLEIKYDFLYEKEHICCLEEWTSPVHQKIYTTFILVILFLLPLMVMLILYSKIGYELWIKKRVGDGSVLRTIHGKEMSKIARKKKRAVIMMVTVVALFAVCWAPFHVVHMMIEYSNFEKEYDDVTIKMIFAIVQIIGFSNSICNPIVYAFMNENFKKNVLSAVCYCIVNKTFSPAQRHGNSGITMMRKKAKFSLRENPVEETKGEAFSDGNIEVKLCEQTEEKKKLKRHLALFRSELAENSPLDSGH
Test: TGFα shedding assay; Exp. level WT (1:20)
Format: cell-based

Substance: TSGPLGNLAEELNGYSRKKGGFSFRF-NH2 [QRFP26]
- Emax (Exp. #1): 92.74 % WT
- Emax (Exp. #2): 87.58 % WT
- Emax (Exp. #3): 97.49 % WT
- Emax (mean, read-out: Emax): 92.6%
- EC50 (n = 3): 135 nM
- Emax (n = 3, read-out: Emax): 96.2 ± 2.3%
